Measured values as given in US20220195332A1, “DIETARY BUTYRATE AND ITS USES” (SOCIETE DES PRODUITS NESTLE S.A., priority 2019, published 2022).

Key:
[1] = tested on: porcine pancreatic lipase (PPL); details: pig, 3 h, pH 11.5
Description: Because many fatty acids are only partially ionised at pH 6.8, direct titration gives only partial picture of the extent of lipid digestion, instead back titration to pH 11.5 or GC-FAME analysis is required to estimate the full extent of digestion.

[2] = tested on: rabbit gastric lipase (RGL) followed by porcine pancreatic lipase (PPL); assay: Sequential in vitro digestion in simulated gastric fluid (SGF) followed by simulated intestinal fluid (SIF), pH-stat
Description: 10 wt % oil in water emulsions stabilised by 0.3 wt % polyoxyethylene sorbitan mono-oleate (Tween® 80) were prepared by mixing the Tween 80 into the oil phase at 40° C., then mixing with the water phase using a magnetic stirrer. An emulsion was then created using a Hielscher UP 400S ultrasonic probe homogeniser equipped with a 5 mm diameter rod-like probe by applying 100% amplitude at 100% cycle for 2 minutes whilst the sample was cooled using ice water.
The lipid emulsion (2 mL) containing 200 mg of fat was subjected to gastrointestinal in vitro lipolysis. The digestions were conducted in thermostated glass vessels (37° C.) in a pH-STAT setup controlled by a TIM 856 bi-burette pH-STAT (Radiometer Analytical, France). For gastric digestion, the sample was incubated for 90 minutes with 8.5 mL of simulated gastric fluid (SGF), which consisted of 150 mM NaCl, 450 U/mL pepsin, 18 U/mL rabbit gastric lipase at 37° C. and a pH of 5.5.
The intestinal digestion step was performed in the pH stat where the pH was kept constant at 6.8 by addition of NaOH (0.05 M). A bile salt mixture (bile salts prepared with tris buffer, 5 mM tris, 150 mM NaCl) and calcium solution (20 mM Ca, 176 5 mM tris, 150 mM NaCl) were added to the SGF-sample mixture. This mixture was transferred to the pH-stat, where the pH was adjusted to approximately 6.78. The intestinal digestion step starts when the temperature reaches 37±0.5° C. The pH was adjusted to pH 6.8 and after incubation of two minutes at this pH and temperature, a pancreatin solution (5 mM tris, 150 mM NaCl at pH 6.8) was added. The final composition of the intestinal fluid was 10 mM CaCl2, 12 mM mixed bile salts, 0.75 mM phospholipid, 150 mM NaCl and 4 mM tris(hydroxymethyl)aminomethane buffer. The intestinal digestion step was carried out for 3 hours in a titration manager from Radiometer. During the intestinal phase of digestion, the kinetics of digestion were followed using a pH-stat (TIM856, Radiometer) technique and expressed as titratable acid (rather than fatty acid) that was calculated by the equation: […]

## CCCC(=O)OCC(COC(=O)CCC)OC(=O)CCC [tributyrin]
[1]
  Extent of digestion: 101.5±0.9%
[2]; SGF-SIF sequential digestion (90 minutes SGF pH 5.5, then SIF pH 6.8)
  Initial lipolysis rate in SIF compartment: 44.1 ± 8.8 µmol/min
[2]; indicated by decreased total fatty acid release during SIF after RGL pre-exposure
  Lipolysis by gastric lipase: ~60%
[2]; simulated gastric compartment
  Hydrolysis in the stomach (gastric lipolysis), in words: extensive hydrolysis in the stomach
